According to patent publication US20210207153A1, “SYSTEMS AND METHODS FOR EDITING A PLANT GENOME” (PIONEER HI-BRED INTERNATIONAL, INC., priority 2018, published 2021):
Where “and” joins values, the source holds several entries; their conditions need not be identical. Equal values may be shown once. Where a name gives a salt, the structure may show the parent alone. Read-outs that look alike come from different tables or passages of the source.

Experiments:
resistant embryos = assay: ABA application and embryo partial desiccation on embryo germination frequency; format: cell-based, canola
Experimental: To further increase embryo germination frequency, abscisic acid (ABA) at 25 μM was added in microspore culture medium NLN-10S with 0.1 -0.2 mM glyphosate 14 days after bombardment. The resistant embryos were partially desiccated in a Petri dish for one week at 25° C. The Petri dish contained a piece of Bounty paper towel with water for maintaining moisture.

microspores = test system: microspores
Experimental: • DNA constructs with promoter AT-UBIQ10 and glyphosate resistant gene GAT4621 were used in the following experiments. • 1. […] In developing canola transformation procedure, microspores were cultured for two days or three days in IM-17M and then cultured in NLN-10S for one day or not before bombardment.
• 2. Effect of CaC12 in IM-17M before bombardment and NLN-13S with 5 μM trifluralin on transformation efficiency • 15 mM calcium chloride was supplemented in IM-17M in microspore culture before bombardment.
It was further studied that calcium chloride was supplemented in NLN-13S with 5 μM trifluralin after bombardment on transformation efficiency.

embryos = assay: PCIB in embryo germination medium on germination frequency; format: cell-based, canola
Experimental: • 4. Increase embryo germination frequency • One of technical challenges in canola transformation was that embryo germination frequency was only around 20%. Antiauxin 2-(p-Chlorophenoxy)-2-methylpropionic acid (PCIB) was included in embryo germination medium BGM for inhibiting callusing. Embryo germination frequency was doubled when 0.0625-1 mg/l PCIB was added in BGM with 0.1 mM glyphosate

[1] = test system: microspore-derived hypocotyls; assay: Sucrose in osmotic medium: transient GUS expression; format: cell-based, Brassica; settings: for # with GUS: 24 hypocotyls
Experimental: Experiments 3 to 7 describe work done using microspore-derived hypocotyls. Microspores were isolated as is known to those skilled in the art and cultured in NLN medium for 21 to 28 days (Swanson et al., 1987). Hypocotyls were excised from the embryos produced from the microspores when the embryos were approximately 3-5 mm in size. Microspores of cultivar 46A65 were cultured in NLN medium for approximately 21 days. On the 21st day, the NLN medium was changed and diluted (1:20) with fresh NLN medium and the embryos were cultured for 5 more days. The hypocotyls were excised from the embryos and preconditioned overnight on MMW+BAP (4 mg/l)+NAA (0.25 mg/l). The hypocotyls were transferred to osmotic medium (for example, 17% sucrose+1% agar+1 g/l MES, pH 6.0) for 4 hours and then bombarded. The DNA construct used in bombardments was PHP 18644. After bombardment, the hypocotyls were cultured on the osmotic medium for approximately between 4 and 20 hours (for example, overnight). The bombarded hypocotyls were then cultured on MMW+BAP (4 mg/l)+kanamycin (25-50 mg/l) for bud induction. Regenerated buds were cultured on MMW+kanamycin (50-100 mg/l) or MMW+BAP (0.2 mg/l)+kanamycin (50-100 mg/l) for plant regeneration. The following experiments were done to test the effect of sucrose concentration, amount of gold particle used and the effect of rupture disk on transformation frequency.
The objective was to find the appropriate concentration of sucrose in the osmotic medium (sucrose+1% agar+1 g/l MES, pH 6.0) in order to produce the highest transformation efficiency.
GUS analysis is known to those skilled in the art. The protocol can be found in numerous references, for example Wu H, McCormac A C, Elliott M C, Chen D F (1998) Agrobacterium-mediated s table transformation of cell suspension cultures of barley (Hordeum vulgare). Plant Cell Tissue and Organ Culture 54:161-171.

[2] = test system: pre-incubated microspores; assay: Sucrose in osmotic medium: resistant embryo production; format: cell-based, Brassica; settings: Total of 4 reps
Experimental: The purpose of this experiment was to find the optimal concentration of sucrose in the osmotic medium. Microspores were cultured for 4-7 days using 17S/10S protocol. […] The rupture disk was 900 psi. […] The diluted cultures were incubated in the light for 2-3 weeks.

[3] = test system: non-transgenic microspores; assay: G418 selection kill curve: embryo growth and survival in liquid medium; format: cell-based, Brassica; settings: for # Green embryos or with green island: liquid medium
From the text: (§1) The objective was to determine the concentration of G418 that kills non-transgenic microspores. Prior to this experiment, selection was done on solid medium, not in liquid medium. Using liquid selection for Brassica transgenic cells is novel. Selection in liquid medium is advantageous for at least the following reasons: (a) it allows selection at an early stage, thereby eliminating the need for subsequent transfers of explants, (b) it allows for a cleaner selection because the explants are generally smaller when they are in liquid medium and the liquid allows all the surfaces of the explant to be exposed to the selection agent, (c) it may reduce the frequency of chimeras, and (d) a lower amount of the selection agent is needed therefore reducing the toxicity to the researcher and the environment. The effect of various concentrations of kanamycin on embryo growth in liquid medium was tested. […] Accordingly, it was difficult to discriminate transgenic tissue or embryos from non-transgenic.

[4] = test system: pre-incubated microspores; assay: Glyphosate resistant embryo selection after bombarding pre-incubated microspores; format: cell-based, Brassica
Experimental: Experiments 8 to 17 describe the work done using pre-incubated microspores. The microspores were cultured in NLN-17S/10S for 2-10 days. Optimally, the microspores are cultured for 5-7 days. Embryos could not be detected with the naked eye. The embryogenic microspores were collected so that they remain viable and embryogenic with a Nitex™ sieve (15-36 um in pore size) or Percoll® (35-45%) gradient centrifugation. Pre-incubated microspores were used as bombarded materials. Any Brassica line that is capable of regenerating by microspore culture can be used. The microspores were cultured for 1-3 days in NLN-17S at 31.5° C., and then in NLN-10S for 4-5 days at 25° C. The constructs used in the bombardments were PHP18644, PHP21965, PHP22024, PHP22021, and PHP23560 (see Table 9). The constructs can be the full plasmid or the expression cassette only. For example, PHP22024 can be either the expression cassette or the full plasmid. The pre-incubated microspores were filtrated with sieves of pore size of 15 μm to 36 μm. The collected microspores were used for bombardment. The microspores were loaded on a sieve 15 μm or 20 μm on two layers of filter-paper and dried for less than one minute. […] Resistant embryos were recorded after two to three weeks of culture. […]

[5] = test system: non-bombarded and bombarded embryos; assay: Effect of kanamycin on embryo growth in liquid medium; format: cell-based, Brassica
From the text: as §1

[6] = ABA 25 μM plus partial desiccation
[7] = 15 mM CaCl2 in IM-17M before bombardment, 24 shots

## CC1=CC(=O)CC(C)(C)[C@@]1(O)/C=C/C(C)=C\C(=O)O [ABA, abscisic acid]
Resistant embryos; ABA 25 μM in NLN-10S 14 days after bombardment plus partial desiccation one week, 479 embryos
  Total shoots: 338
Resistant embryos; [6]
  Germination: 76.6%
  embryo germination frequency, change: significantly increased

## [Ca+2].[Cl-].[Cl-] [CaCl2, calcium chloride]
microspores; [7]
  # embryos: 574
  Embryos/shot: 23.9
microspores; CaCl2 0 mM in IM-17M, 10 mM in NLN-13S + trifluralin
  Embryos/shot: 11
microspores; CaCl2 0 mM in IM-17M, 10 mM in NLN-13S + trifluralin, 15 shots
  # embryos: 169
microspores; CaCl2 0 mM in IM-17M, 20 mM in NLN-13S + trifluralin
  Embryos/shot: 16
microspores; CaCl2 0 mM in IM-17M, 20 mM in NLN-13S + trifluralin, 19 shots
  # embryos: 300
microspores; CaCl2 15 mM in IM-17M, 0 mM in NLN-13S + trifluralin
  Embryos/shot: 6
microspores; CaCl2 15 mM in IM-17M, 0 mM in NLN-13S + trifluralin, 22 shots
  # embryos: 139

## CC(C)(Oc1ccc(Cl)cc1)C(=O)O [PCIB, 2-(p-Chlorophenoxy)-2-methylpropionic acid]
embryos; 0.0625-1 mg/l PCIB in BGM with 0.1 mM glyphosate
  embryo germination frequency, change: doubled
embryos; PCIB 0.0625 mg/l
  Germination frequency: 44%
embryos; PCIB 0.0625 mg/l in BGM with 0.1 mM glyphosate, 63 embryos
  # plantlets: 28
embryos; PCIB 0.125 mg/l
  Germination frequency: 43%
embryos; PCIB 0.125 mg/l, 72 embryos
  # plantlets: 31
embryos; PCIB 0.25 mg/l
  Germination frequency: 50%
embryos; PCIB 0.25 mg/l, 72 embryos
  # plantlets: 36
embryos; PCIB 0.5 mg/l
  Germination frequency: 44%
embryos; PCIB 0.5 mg/l, 63 embryos
  # plantlets: 28
embryos; PCIB 1 mg/l
  Germination frequency: 44%
embryos; PCIB 1 mg/l, 81 embryos
  # plantlets: 36

## OC[C@H]1O[C@@](CO)(O[C@H]2O[C@H](CO)[C@@H](O)[C@H](O)[C@H]2O)[C@@H](O)[C@@H]1O [Sucrose, sucrose]
[1]; 15% sucrose
  # spots/hypocotyls: 9.8
  # total spots: 236
  # with GUS: 23
[1]; 17% sucrose
  # spots/hypocotyls: 10.1
  # total spots: 242
  # with GUS: 23
[1]; 19% sucrose
  # spots/hypocotyls: 19.8
  # total spots: 475
  # with GUS: 23
[1]; 21% sucrose
  # spots/hypocotyls: 16.7
  # total spots: 400
  # with GUS: 24
[2]; 17% sucrose
  Resistant embryos/plate: 2.5
[2]; 19% sucrose
  Resistant embryos/plate: 2.1

## CN[C@@H]1[C@@H](O)[C@@H](O[C@@H]2[C@@H](O)[C@H](O[C@H]3O[C@H]([C@@H](C)O)[C@@H](O)[C@H](O)[C@H]3N)[C@@H](N)C[C@H]2N)OC[C@]1(C)O [Variant G418, G418 disulfate salt]
[3]; G418 1.25 mg/l, disulfate salt
  # Green embryos or with green island: 30 and 28
[3]; G418 2.5 mg/l, disulfate salt
  # Green embryos or with green island: 14 and 11
[3]; G418 5 mg/l
  # Green embryos or with green island: 0
[3]; G418 10 mg/l
  # Green embryos or with green island: 0
[3]; NLN with 6.5% sucrose medium
  concentration sufficient to differentiate transformed cells from untransformed cells: 5 to 10 mg/L

## O=C(O)CNCP(=O)(O)O [glyphosate]
[4]; glyphosate 0.1 mM or 0.2 mM
  identification of resistant embryos: allowed identification of resistant embryos
[4]; glyphosate 0.2 mM versus 0.1 mM
  selection efficiency: fewer false positive results

## NC[C@H]1O[C@H](O[C@H]2[C@H](O)[C@@H](O[C@H]3O[C@H](CO)[C@@H](O)[C@H](N)[C@H]3O)[C@H](N)C[C@@H]2N)[C@H](O)[C@@H](O)[C@@H]1O [kanamycin]
[5]
  concentration sufficient to bleach non-bombarded embryos and inhibit non-bombarded embryo growth: 10 mg/L
